How the values were obtained:
ADAMTS4 = ADAMTS4 (Rattus norvegicus (Rat), UniProt Q9ESP7); test: Active ADAMTS4 protein level (immunoblotting) in MI rats; format: in vivo; conditions: PPS-treatment
Procedure: (§1) At day 0 to 3 (median 2) after surgery, infarct size was quantified by echocardiography using the Vevo2100 system (Visualsonics Inc, Canada) and magnetic resonance imaging (MRi) using a 9.4 T/210 mm/ASR horizontal bore magnet (Agilent Technologies, Inc., USA). Initially, echocardiography was performed to select moderate to large infarcts ranging approximately 40 to 50%. Thereafter, infarct sizes were exactly measured by late-enhancement gadolinium MRi analyses (Bohl S., et al. American Journal of Physiology, 2009; 296 (4): H1200-H1208) and stratified into small infarcts (stratum 1: <43%, stratum 2: 43-48%), and large infarcts (stratum 3: 48-53%, stratum 4: >53%). The rats in each MI stratum and sham group were randomized to receive intervention or control treatment. The intervention group was treated with 6 mg/kg of sodium PPS (Interfarm AS, Norway), while the control group received vehicle (0.9% NaCl), both injected subcutaneously every third day starting from post-operative day 8-10.
(§2) Fractional protein lysates from myocardium of rats having undergone MI treated with PPS or vehicle were extracted as previously described in Example 1 and Didangelos et al. (Journal of Biological Chemistry 2012 Jun. 1; 287(23):19341-5). Protein concentrations were measured by western blotting as previously described in Example 1. […]

versican = test: Versican DPEEAE fragments (immunoblotting) in MI rats; format: in vivo, rat; conditions: PPS-treatment
Procedure: as §1, §2

ADAMTS5 = ADAMTS5 (Homo sapiens (Human), UniProt Q9UNA0); conditions: previous studies; cited from earlier work
ADAMTS4 mRNA = test: Myocardial ADAMTS4 mRNA expression (qRT-PCR) in aortic banding rats; format: in vivo, rat; conditions: AB-rats treated with PPS, left ventricle, six weeks after AB; normalized to RPL4, relative to vehicle-treated sham; median (interquartile range)
Procedure: Three days after AB, rats were stratified by the gradient over the stenosis to ensure similar degree of cardiac stress. Two and two stratified rats were randomized to either 6 mg/kg of the sulfated polysaccharide sodium pentosan polysulfate (PPS) (Interfarm AS, Norway) or vehicle (0.9% NaCl) injected subcutaneously every third day. […] Six weeks after AB or sham operation, the rats were examined by echocardiography and postmortem analysis, performed by experienced investigators (IS, JMA) blinded to treatment group.
In addition, mRNA levels of proteins known to modulate ADAMTS activity or versican function were measured; tissue inhibitor of metalloprotease (TIMP)-3, hyaluronic acid (HA) synthase 1 and 2, and membrane-type (MT)4-MMP, while mRNA levels of ADAMTS1, -4, and versican were quantified in NFB and NCM.
Total RNA was isolated from the left ventricle in AB rats, neonatal rat cardiomyocytes and fibroblasts (RNeasy mini kit, Qiagen, Valencia, Calif.). […] The results were detected on an ABI PRISM 7900 Sequence Detection System (Applied Biosystems, CA).

Sequence of ADAMTS5 (Q9UNA0 262-930, species assumed): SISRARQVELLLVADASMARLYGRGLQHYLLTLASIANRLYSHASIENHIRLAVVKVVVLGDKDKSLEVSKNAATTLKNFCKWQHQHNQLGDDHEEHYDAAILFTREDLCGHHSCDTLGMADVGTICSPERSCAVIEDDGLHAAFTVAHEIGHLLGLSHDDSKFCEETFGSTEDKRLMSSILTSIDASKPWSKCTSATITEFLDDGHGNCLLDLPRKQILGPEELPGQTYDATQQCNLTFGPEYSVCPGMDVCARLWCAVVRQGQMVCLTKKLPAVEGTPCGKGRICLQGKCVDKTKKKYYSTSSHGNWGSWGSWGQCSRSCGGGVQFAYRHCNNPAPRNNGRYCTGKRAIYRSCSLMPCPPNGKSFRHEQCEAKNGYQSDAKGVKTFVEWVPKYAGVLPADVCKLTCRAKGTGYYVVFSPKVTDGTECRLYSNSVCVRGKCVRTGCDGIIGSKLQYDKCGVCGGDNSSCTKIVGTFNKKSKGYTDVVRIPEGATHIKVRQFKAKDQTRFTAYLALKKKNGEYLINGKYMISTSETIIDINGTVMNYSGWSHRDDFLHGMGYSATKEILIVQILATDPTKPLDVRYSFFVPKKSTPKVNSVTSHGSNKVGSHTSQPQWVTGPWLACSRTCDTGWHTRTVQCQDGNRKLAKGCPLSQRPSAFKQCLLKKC

active ADAMTS4 protein levels (ADAMTS4): decreased
Substance: pentosan polysulfate [PPS]
versican DPEEAE fragments (versican): decreased
aggrecanase activity of ADAMTS5 (ADAMTS5): inhibits
ADAMTS4 mRNA level (ADAMTS4 mRNA): 1.29 (1.00-6.45)
